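Protocol summary: plate cells (96-well), add compound at 5 concentrations, incubate 48 h, interpolate endpoints linearly. GI50 marks 50% less growth. TGI: total growth inhibition.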 A value given as a limit tells only on which side of the number the result lay.

This note sets out measurements from PubChem BioAssay (NCI).

Some test systems named below: UACC-62 melanoma; MDA-MB-231 breast; OVCAR-3 ovarian; TK-10 renal; MALME-3M melanoma; OVCAR-4 ovarian; SN12C renal; DU-145 prostate; HCC-2998 colon; NCI-H522 lung.
Holding throughout (experiment): inhibition of tumour cell growth, NCI panel, 48 h

As for `OC1(c2ccc(Cl)cc2)c2ccc(CN3CCCC3)cc2C2=NCCN21` (centres undefined), the TGI in the test on UACC-62 melanoma is 28.1 µM; in the test with MDA-MB-231 breast it was 27.3 µM; in the test with OVCAR-3 ovarian it was 31.7 µM; in the test on TK-10 renal it was 17.4 µM; with MALME-3M melanoma it was 25.2 µM; in the test with OVCAR-4 ovarian, 25.1 µM. Further, the TGI in the test on SN12C renal was 31.7 µM; in the test on DU-145 prostate, 32.2 µM.

Regarding `O=C(OCc1ccccc1)C(Cc1ccccc1)N(Cc1ccccc1)Cc1ccccc1` (centres undefined), the TGI with HCC-2998 colon, with UACC-62 melanoma, in the test with OVCAR-3 ovarian, in the test on TK-10 renal, with MALME-3M melanoma and with OVCAR-4 ovarian was more than 100 µM in each case. The TGI in the test on NCI-H522 lung and in the test on SN12C renal was more than 100 µM throughout.

Turning to `O=C1c2cccc(NCCNCCO)c2C(=O)c2cccc(NCCNCCO)c21`, the TGI with HCC-2998 colon was 2.45 µM; in the test with UACC-62 melanoma, 3.81 µM; with OVCAR-3 ovarian, 4.74 µM; in the test with TK-10 renal, 23.2 µM; in the test with MALME-3M melanoma, 3.65 µM; in the test on OVCAR-4 ovarian it was 2.49 µM. In addition, the figures for the TGI in the test with NCI-H522 lung, in the test with SN12C renal and in the test with DU-145 prostate were 1.66 µM, 5.82 µM and 5.91 µM, respectively.

With `Nc1nc(Nc2ccccc2)sc1C(=O)c1c[nH]c2ccccc12`, the TGI with UACC-62 melanoma was 28.9 µM; with MDA-MB-231 breast, 32.3 µM; with OVCAR-3 ovarian it was 26.6 µM; in the test on TK-10 renal, 11 µM; with MALME-3M melanoma, 34.5 µM; in the test with OVCAR-4 ovarian it was 23.5 µM. In addition, the TGI amounted to 34.4 µM in the test with SN12C renal and 22.5 µM with DU-145 prostate.

For `CCOC(=O)C(C)c1nc2c(Cl)c3ncccc3cc2[nH]c1=O` (centres undefined), the TGI in the test on UACC-62 melanoma, with MDA-MB-231 breast, in the test with OVCAR-3 ovarian, in the test with TK-10 renal, in the test on MALME-3M melanoma and in the test on OVCAR-4 ovarian was more than 100 µM throughout. The TGI with NCI-H522 lung, with SN12C renal and with DU-145 prostate was more than 100 µM each time.

`CCCCC/C(C=O)=C\c1ccccc1`: the TGI with HCC-2998 colon, in the test with UACC-62 melanoma, with MDA-MB-231 breast, in the test with TK-10 renal, in the test with OVCAR-4 ovarian and in the test on DU-145 prostate was more than 100 µM throughout.

For the molecule `Nc1nc(Nc2ccc(Cl)cc2)sc1C(=O)c1cccs1`, the TGI was more than 100 µM in the test with UACC-62 melanoma; more than 100 µM in the test on MDA-MB-231 breast; 72.1 µM in the test on OVCAR-3 ovarian; 36.3 µM with TK-10 renal; more than 100 µM in the test on MALME-3M melanoma; more than 100 µM with OVCAR-4 ovarian. In addition, the TGI was 50.6 µM in the test with SN12C renal and more than 100 µM in the test with DU-145 prostate.

In the case of `CCCCN(CCCC)C(=C(C(Cl)=C(Cl)Cl)[N+](=O)[O-])N(CCCC)CCCC`, the TGI with UACC-62 melanoma, in the test with MDA-MB-231 breast, with OVCAR-3 ovarian, with TK-10 renal, with MALME-3M melanoma and in the test with OVCAR-4 ovarian was more than 100 µM in each case. In addition, the TGI in the test on NCI-H522 lung, in the test with SN12C renal and in the test with DU-145 prostate was more than 100 µM each time.

On to `N#Cc1c(C#N)c(-c2ccccc2)n(-c2ccccc2)c1N`, for which the TGI with UACC-62 melanoma, in the test on MDA-MB-231 breast, in the test with OVCAR-3 ovarian, in the test on TK-10 renal, in the test on MALME-3M melanoma and in the test with OVCAR-4 ovarian was more than 100 µM throughout. Besides, the TGI with NCI-H522 lung, with SN12C renal and in the test on DU-145 prostate was more than 100 µM throughout.

On to `CCN1C(=O)N(CC)C2Nn3c(s/c(=C4\C(=O)N(C)c5ccccc54)c3=O)=NC21` (centres undefined), for which the GI50 with MDA-MB-231 breast is 3.42 µM; with OVCAR-3 ovarian it was 1.99 µM; in the test on MALME-3M melanoma it was 3.9 µM; with OVCAR-4 ovarian, 1.98 µM; in the test with NCI-H522 lung, 2.98 µM. In addition, the TGI in the test on MDA-MB-231 breast, with OVCAR-3 ovarian, with MALME-3M melanoma, with OVCAR-4 ovarian and in the test with NCI-H522 lung was more than 100 µM each time.

For `COC(=O)[C@H](Cc1ccccc1)NC(=O)c1ccc(CNC(=O)/C=C/c2cccc(Oc3ccccc3)c2)cc1`, the TGI in the test on HCC-2998 colon amounted to 89.7 µM; in the test on UACC-62 melanoma it was 24 µM; with MDA-MB-231 breast it was 48.6 µM; in the test with OVCAR-3 ovarian, 40.4 µM; in the test on TK-10 renal it was 92.5 µM; in the test with MALME-3M melanoma, 30.4 µM. The TGI was more than 100 µM in the test with OVCAR-4 ovarian, 75.9 µM in the test with SN12C renal and more than 100 µM with DU-145 prostate.

In the case of `CC(C)CCn1nc(N)c2nc3ccccc3nc21`, the TGI with HCC-2998 colon, in the test with UACC-62 melanoma, in the test on OVCAR-3 ovarian, with TK-10 renal, in the test with MALME-3M melanoma and in the test with OVCAR-4 ovarian was more than 100 µM throughout. In addition, the TGI with NCI-H522 lung and in the test on SN12C renal was more than 100 µM throughout.

As for `COc1ccccc1N1CCN(CCCNC(=O)c2cc(Cl)c(N)c(Cl)c2)CC1`, the TGI was 41.6 µM in the test on HCC-2998 colon; more than 100 µM with UACC-62 melanoma; more than 100 µM in the test with MDA-MB-231 breast; more than 100 µM with TK-10 renal; 37.7 µM with MALME-3M melanoma; more than 100 µM in the test with OVCAR-4 ovarian. Further, the TGI in the test on SN12C renal and in the test with DU-145 prostate was more than 100 µM each time.

As for `CSC(SC)=C1C(=O)N(c2ccccc2)N=C1C`, the TGI in the test on HCC-2998 colon is more than 100 µM; with UACC-62 melanoma, 89.9 µM; with MDA-MB-231 breast it was more than 100 µM; in the test on TK-10 renal it was more than 100 µM; with MALME-3M melanoma, 58.8 µM; in the test on OVCAR-4 ovarian, more than 100 µM. The TGI with NCI-H522 lung worked out at 59 µM; in the test on SN12C renal, 97.3 µM.

With `O=C(O)CSC(NC(=O)C(C(F)(F)F)C(F)(F)F)(C(F)(F)F)C(F)(F)F`, the TGI in the test with HCC-2998 colon, with TK-10 renal and in the test with SN12C renal was more than 100 µM in each case.

For `CC/C(Cl)=N\OC(=O)Nc1ccc(F)c([N+](=O)[O-])c1`, the TGI was more than 100 µM in the test on HCC-2998 colon; 35.8 µM in the test with UACC-62 melanoma; 34.9 µM in the test with MDA-MB-231 breast; 18.3 µM with OVCAR-3 ovarian; 26.1 µM in the test on TK-10 renal; 4.35 µM with MALME-3M melanoma. Also, the TGI worked out at 14.7 µM in the test on OVCAR-4 ovarian, 47.1 µM in the test with SN12C renal and 36.9 µM in the test with DU-145 prostate.
